{"source": "paper PMC11213733", "about": "“Computational approaches identify a transcriptomic fingerprint of drug-induced structural cardiotoxicity” (Cell Biology and Toxicology, 2024)", "key": {"[1]": {"system": "cardiac microtissues", "assay": "Ingenuity Pathway Analysis over-representation of differentially expressed genes (activation Z-score)", "format": "cell-based, human", "settings": "48hr high; Group 1"}, "[2]": {"settings": "ref FDA label, cited from earlier work; for Structural cardiotoxin?: FDA label references heart failure or a decrease in left ventricular ejection fraction; for Functional cardiotoxin?: compound annotation"}, "[3]": {"system": "cardiac microtissues", "assay": "Transcriptomic profiling (mRNA-seq) and DESeq2 differential gene expression analysis in cardiac microtissues", "settings": "absolute log2(Fold-Change) > 1, FDR p ≤ 0.05; for number of significant differentially expressed genes, 6hr high / number of significant differentially expressed genes, 48hr high / number of significant differentially expressed genes, 72hr high: high concentration; for number of significant differentially expressed genes, 6hr low / number of significant differentially expressed genes, 48hr low / number of significant differentially expressed genes, 72hr low: low concentration"}}, "note": "Structures can show the parent of a compound that is named as a salt."}
{"smiles": "O=c1[nH]cc(F)c(=O)[nH]1", "note": "[Fluorouracil]", "values": [{"measurement": "activation Z-score: BER (Base Excision Repair) Pathway", "setting": "[1]", "value": -2.236}, {"measurement": "activation Z-score: Cell Cycle Control of Chromosomal Replication", "setting": "[1]", "value": -4.359}, {"measurement": "activation Z-score: Cell Cycle Regulation by BTG Family Proteins", "setting": "[1]", "value": -1.342}, {"measurement": "activation Z-score: Cyclins and Cell Cycle Regulation", "setting": "[1]", "value": -2.714}, {"measurement": "activation Z-score: DNA Methylation and Transcriptional Repression Signaling", "setting": "[1]", "value": -1.414}, {"measurement": "activation Z-score: Estrogen-mediated S-phase Entry", "setting": "[1]", "value": -2.333}, {"measurement": "activation Z-score: G-Protein Coupled Receptor Signaling", "setting": "[1]", "value": -1}, {"measurement": "activation Z-score: Kinetochore Metaphase Signaling Pathway", "setting": "[1]", "value": -3.772}, {"measurement": "activation Z-score: Mismatch Repair in Eukaryotes", "setting": "[1]", "value": -2}, {"measurement": "activation Z-score: Mitotic Roles of Polo-Like Kinase", "setting": "[1]", "value": -2.309}, {"measurement": "activation Z-score: NER (Nucleotide Excision Repair, Enhanced Pathway)", "setting": "[1]", "value": -1.414}, {"measurement": "activation Z-score: Protein Kinase A Signaling", "setting": "[1]", "value": 2}, {"measurement": "activation Z-score: Pyridoxal 5'-phosphate Salvage Pathway", "setting": "[1]", "value": -1.89}, {"measurement": "activation Z-score: RHOGDI Signaling", "setting": "[1]", "value": 2}, {"measurement": "activation Z-score: Salvage Pathways of Pyrimidine Ribonucleotides", "setting": "[1]", "value": -2.121}, {"measurement": "activation Z-score: Senescence Pathway", "setting": "[1]", "value": 2.324}, {"measurement": "activation Z-score: Superpathway of Inositol Phosphate Compounds", "setting": "[1]", "value": -0.447}, {"measurement": "Structural cardiotoxin?", "setting": "[2]", "value": "Y"}, {"measurement": "Functional cardiotoxin?", "setting": "[2]", "value": "Y"}, {"measurement": "number of significant differentially expressed genes, 6hr high", "setting": "[3]", "value": 0}, {"measurement": "number of significant differentially expressed genes, 6hr low", "setting": "[3]", "value": 0}, {"measurement": "number of significant differentially expressed genes, 48hr high", "setting": "[3]", "value": 401}, {"measurement": "number of significant differentially expressed genes, 48hr low", "setting": "[3]", "value": 1}, {"measurement": "number of significant differentially expressed genes, 72hr high", "setting": "[3]", "value": 366}, {"measurement": "number of significant differentially expressed genes, 72hr low", "setting": "[3]", "value": 200}]}
{"smiles": "CC(=O)[C@]1(O)Cc2c(O)c3c(c(O)c2[C@@H](O[C@H]2C[C@H](N)[C@H](O)[C@H](C)O2)C1)C(=O)c1ccccc1C3=O", "note": "[Idarubicin HCl]", "values": [{"measurement": "activation Z-score: Acute Phase Response Signaling", "setting": "[1]", "value": -0.816}, {"measurement": "activation Z-score: Apelin Liver Signaling Pathway", "setting": "[1]", "value": -0.707}, {"measurement": "activation Z-score: BER (Base Excision Repair) Pathway", "setting": "[1]", "value": -2.333}, {"measurement": "activation Z-score: Cardiac Hypertrophy Signaling", "setting": "[1]", "value": -1.732}, {"measurement": "activation Z-score: Cardiomyocyte Differentiation via BMP Receptors", "setting": "[1]", "value": -2.236}, {"measurement": "activation Z-score: Cell Cycle Control of Chromosomal Replication", "setting": "[1]", "value": -3.71}, {"measurement": "activation Z-score: Cell Cycle Regulation by BTG Family Proteins", "setting": "[1]", "value": -1.342}, {"measurement": "activation Z-score: Cyclins and Cell Cycle Regulation", "setting": "[1]", "value": -1.941}, {"measurement": "activation Z-score: D-myo-inositol-5-phosphate Metabolism", "setting": "[1]", "value": 0.258}, {"measurement": "activation Z-score: DNA Methylation and Transcriptional Repression Signaling", "setting": "[1]", "value": -0.535}, {"measurement": "activation Z-score: Estrogen-mediated S-phase Entry", "setting": "[1]", "value": -1.897}, {"measurement": "activation Z-score: Factors Promoting Cardiogenesis in Vertebrates", "setting": "[1]", "value": -2.117}, {"measurement": "activation Z-score: G-Protein Coupled Receptor Signaling", "setting": "[1]", "value": 0.53}, {"measurement": "activation Z-score: GP6 Signaling Pathway", "setting": "[1]", "value": 0.378}, {"measurement": "activation Z-score: Glioma Invasiveness Signaling", "setting": "[1]", "value": -0.632}, {"measurement": "activation Z-score: HIF1Î± Signaling", "setting": "[1]", "value": 0.209}, {"measurement": "activation Z-score: HMGB1 Signaling", "setting": "[1]", "value": -0.577}, {"measurement": "activation Z-score: Hepatic Fibrosis Signaling Pathway", "setting": "[1]", "value": -1.508}, {"measurement": "activation Z-score: ILK Signaling", "setting": "[1]", "value": -3}, {"measurement": "activation Z-score: Insulin Secretion Signaling Pathway", "setting": "[1]", "value": -0.192}, {"measurement": "activation Z-score: Integrin Signaling", "setting": "[1]", "value": -1.877}, {"measurement": "activation Z-score: Kinetochore Metaphase Signaling Pathway", "setting": "[1]", "value": -2.556}, {"measurement": "activation Z-score: Mismatch Repair in Eukaryotes", "setting": "[1]", "value": -2.333}, {"measurement": "activation Z-score: Mitotic Roles of Polo-Like Kinase", "setting": "[1]", "value": -1.604}, {"measurement": "activation Z-score: NER (Nucleotide Excision Repair, Enhanced Pathway)", "setting": "[1]", "value": -2.183}, {"measurement": "activation Z-score: Nitric Oxide Signaling in the Cardiovascular System", "setting": "[1]", "value": 0.775}, {"measurement": "activation Z-score: Protein Kinase A Signaling", "setting": "[1]", "value": 0.302}, {"measurement": "activation Z-score: Pyridoxal 5'-phosphate Salvage Pathway", "setting": "[1]", "value": -1}, {"measurement": "activation Z-score: RHOGDI Signaling", "setting": "[1]", "value": 0.816}, {"measurement": "activation Z-score: Regulation Of The Epithelial Mesenchymal Transition By Growth Factors Pathway", "setting": "[1]", "value": -1.147}, {"measurement": "activation Z-score: Role of NFAT in Cardiac Hypertrophy", "setting": "[1]", "value": -1.512}, {"measurement": "activation Z-score: SPINK1 General Cancer Pathway", "setting": "[1]", "value": 2.333}, {"measurement": "activation Z-score: Salvage Pathways of Pyrimidine Ribonucleotides", "setting": "[1]", "value": -1}, {"measurement": "activation Z-score: Senescence Pathway", "setting": "[1]", "value": 1.768}, {"measurement": "activation Z-score: Sphingosine-1-phosphate Signaling", "setting": "[1]", "value": 0}, {"measurement": "activation Z-score: Superpathway of Inositol Phosphate Compounds", "setting": "[1]", "value": 0.894}, {"measurement": "activation Z-score: Thrombin Signaling", "setting": "[1]", "value": -0.471}, {"measurement": "activation Z-score: White Adipose Tissue Browning Pathway", "setting": "[1]", "value": -2.449}, {"measurement": "activation Z-score: Wound Healing Signaling Pathway", "setting": "[1]", "value": -0.164}, {"measurement": "activation Z-score: cAMP-mediated signaling", "setting": "[1]", "value": 0}, {"measurement": "Structural cardiotoxin?", "setting": "[2]", "value": "Y"}, {"measurement": "Functional cardiotoxin?", "setting": "[2]", "value": "Y"}, {"measurement": "number of significant differentially expressed genes, 6hr high", "setting": "[3]", "value": 24}, {"measurement": "number of significant differentially expressed genes, 6hr low", "setting": "[3]", "value": 12}, {"measurement": "number of significant differentially expressed genes, 48hr high", "setting": "[3]", "value": 2838}, {"measurement": "number of significant differentially expressed genes, 48hr low", "setting": "[3]", "value": 578}, {"measurement": "number of significant differentially expressed genes, 72hr high", "setting": "[3]", "value": 1616}, {"measurement": "number of significant differentially expressed genes, 72hr low", "setting": "[3]", "value": 864}]}
